The results in this text go back to publication PMC7567103 (Nature Communications, 2020).

What all share (format): cell-based
Settings in all cases: mean ± SEM, n ≥ 3

For one experiment, the target named is T1, GHRHR L354A (Homo sapiens, UniProt Q02643, L354A).
T1 construct: GHRHR(23-423)-; HA signal peptide (replaces native signal M1-G22) (N); expressed in transfected cells; host or cells: HEK 293 T
The experiment can be described thus: cAMP accumulation, L354A. From the text:
(§1) Fig. 2 Molecular recognition of GHRH by GHRHR and comparison of that with LA-PTH–PTH1R and GLP-1–GLP-1R. a Detailed interaction between GHRH and the TMD pocket of GHRHR with hydrogen bonds shown as dotted lines. b, c Pairwise comparison of GHRH bound to GHRHR with GLP-1 and LA-PTH in complex with their corresponding receptors, showing the relative positions of peptide ligands. Lime green, GHRHR; blue, GHRH; red, PTH1R and LA-PTH; purple, GLP-1R and GLP-1. d–f The effects of mutation in the ligand-binding pocket on cAMP accumulation. cAMP levels were measured in wild-type (WT) receptor and alanine mutants in ECL1, 2, and 3 (d), TM1, 2, and 3 (e), and TM5, 6, and 7 (f). cAMP signals were normalized to the maximum response of WT and concentration–response curves were analyzed using a three-parameter logistic equation. Data shown are means ± S.E.M. of at least three independent experiments (n = 3–5), conducted in triplicate. Source data are provided as a Source data file.
(§2) GHRH-stimulated cAMP accumulation was measured by a LANCE Ultra cAMP kit (PerkinElmer). […] After 1 h RT incubation, TR-FRET signals (excitation: 320 nm, emission: 615 and 665 nm) were measured by an EnVision (PerkinElmer).

In a further experiment the target is T2, GHRHR D350A (Homo sapiens, UniProt Q02643, D350A).
T2 construct: GHRHR(23-423)-; HA signal peptide (replaces native signal M1-G22) (N); expressed in transfected cells; host or cells: HEK 293 T
As to the kind of experiment: cAMP accumulation, D350A.
Source text: as §1, §2

The target in a further experiment is T3, GHRHR C195A (Homo sapiens, UniProt Q02643, C195A).
T3 construct: GHRHR(23-423)-; HA signal peptide (replaces native signal M1-G22) (N); expressed in transfected cells; host or cells: HEK 293T, pcDNA3.1, transient
As to the kind of experiment: cAMP accumulation, C195A.
Source text: as §1, §2

A further experiment deals with T4, GHRHR A271R (Homo sapiens, UniProt Q02643, A271R).
T4 construct: GHRHR(23-423)-; HA signal peptide (replaces native signal M1-G22) (N); expressed in transfected cells; host or cells: HEK 293T, pcDNA3.1, transient
As to the kind of experiment: cAMP accumulation, A271R.
Source text: as §1, §2

The next experiment has as its target T5, GHRHR D193A (Homo sapiens, UniProt Q02643, D193A).
T5 construct: GHRHR(23-423)-; HA signal peptide (replaces native signal M1-G22) (N); expressed in transfected cells; host or cells: HEK 293T, pcDNA3.1, transient
As to the kind of experiment: cAMP accumulation, D193A.
Source text: as §1, §2

A further experiment has as its target T6, GHRHR L358A (Homo sapiens, UniProt Q02643, L358A).
T6 construct: GHRHR(23-423)-; HA signal peptide (replaces native signal M1-G22) (N); expressed in transfected cells; host or cells: HEK 293 T
The experiment can be described thus: cAMP accumulation, L358A.
Source text: as §1, §2

Each structure is given as a SMILES string. pEC50: −log10 of the molar value.

T5 sequence (Q02643 23-423 D193A): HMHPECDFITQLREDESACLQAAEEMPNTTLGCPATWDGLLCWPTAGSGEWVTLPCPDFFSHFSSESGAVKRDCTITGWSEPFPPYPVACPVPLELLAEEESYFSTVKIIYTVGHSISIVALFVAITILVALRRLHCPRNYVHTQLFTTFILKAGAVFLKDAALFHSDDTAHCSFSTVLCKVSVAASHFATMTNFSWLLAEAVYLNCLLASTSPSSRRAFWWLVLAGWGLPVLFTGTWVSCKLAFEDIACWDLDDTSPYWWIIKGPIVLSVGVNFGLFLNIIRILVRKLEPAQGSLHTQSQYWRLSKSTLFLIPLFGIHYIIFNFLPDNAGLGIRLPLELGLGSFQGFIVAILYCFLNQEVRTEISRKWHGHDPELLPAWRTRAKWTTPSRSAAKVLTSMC
T1 sequence (Q02643 23-423 L354A): as the sequence (Q02643 23-423 D193A) above, with A171D, L332A counted along it
T3 sequence (Q02643 23-423 C195A): as the sequence (Q02643 23-423 D193A) above, with A171D, C173A counted along it
T6 sequence (Q02643 23-423 L358A): as the sequence (Q02643 23-423 D193A) above, with A171D, L336A counted along it
T2 sequence (Q02643 23-423 D350A): as the sequence (Q02643 23-423 D193A) above, with A171D, D328A counted along it
T4 sequence (Q02643 23-423 A271R): as the sequence (Q02643 23-423 D193A) above, with A171D, A249R counted along it

Turning to `CC[C@H](C)[C@H](NC(=O)[C@H](C)NC(=O)[C@H](CC(=O)O)NC(=O)[C@H](C)NC(=O)[C@@H](N)Cc1ccc(O)cc1)C(=O)N[C@@H](Cc1ccccc1)C(=O)N[C@H](C(=O)N[C@@H](CC(N)=O)C(=O)N[C@@H](CO)C(=O)N[C@@H](Cc1ccc(O)cc1)C(=O)N[C@@H](CCCNC(=N)N)C(=O)N[C@@H](CCCCN)C(=O)N[C@H](C(=O)N[C@@H](CC(C)C)C(=O)NCC(=O)N[C@@H](CCC(N)=O)C(=O)N[C@@H](CC(C)C)C(=O)N[C@@H](CO)C(=O)N[C@@H](C)C(=O)N[C@@H](CCCNC(=N)N)C(=O)N[C@@H](CCCCN)C(=O)N[C@@H](CC(C)C)C(=O)N[C@@H](CC(C)C)C(=O)N[C@@H](CCC(N)=O)C(=O)N[C@@H](CC(=O)O)C(=O)N[C@H](C(=O)N[C@@H](CCSC)C(=O)N[C@@H](CO)C(=O)N[C@@H](CCCNC(=N)N)C(=O)N[C@@H](CCC(N)=O)C(=O)N[C@@H](CCC(N)=O)C(=O)NCC(=O)N[C@@H](CCC(=O)O)C(=O)N[C@@H](CO)C(=O)N[C@@H](CC(N)=O)C(=O)N[C@@H](CCC(N)=O)C(=O)N[C@@H](CCC(=O)O)C(=O)N[C@@H](CCCNC(=N)N)C(=O)NCC(=O)N[C@@H](C)C(=O)N[C@@H](CCCNC(=N)N)C(=O)N[C@@H](C)C(=O)N[C@@H](CCCNC(=N)N)C(=O)N[C@@H](CC(C)C)C(N)=O)[C@@H](C)CC)C(C)C)[C@@H](C)O` [GHRH, Growth hormone-releasing hormone], the pEC50 on GHRHR L354A is 9.74; at GHRHR D350A it was 6.83; at GHRHR C195A it was 7.67; at GHRHR A271R, 9.98; on GHRHR D193A, 9.94; on GHRHR L358A it was 8.98. Besides, the Emax at GHRHR L354A is listed as 98.79±1.84 % WT; on GHRHR D350A, 47.38±8.48 % WT; at GHRHR C195A it was 95.22±1.05 % WT; at GHRHR A271R it was 100.81±1.19 % WT; on GHRHR D193A, 101.42±1.02 % WT; on GHRHR L358A it was 100.3±1.21 % WT.
